target: human wild type-CFTR (Homo sapiens, UniProt P13569); test: Cell-based YFP assay; parameters: expressed in transfected cells; host or cells: CHO-K1 (Chinese hamster ovary); settings: CHO-K1 cells expressing human wild type-CFTR and YFP-H148Q/I152L; forskolin 20 μM = 100% activity; read-out: Cell-based YFP Assay (EC50) Concentration Range
Summary of the method: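 I⁻-driven YFP fluorescence quenching at 37 °C: 2 s baseline, addition of 140 mM iodide solution, then 14 s of readings at 0.4 s intervals. Cells were CHO-K1 expressing human wild-type CFTR plus YFP-H148Q/I152L. EC50 derived from averaged triplicates.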

human wild type-CFTR, sequence (P13569 whole entry): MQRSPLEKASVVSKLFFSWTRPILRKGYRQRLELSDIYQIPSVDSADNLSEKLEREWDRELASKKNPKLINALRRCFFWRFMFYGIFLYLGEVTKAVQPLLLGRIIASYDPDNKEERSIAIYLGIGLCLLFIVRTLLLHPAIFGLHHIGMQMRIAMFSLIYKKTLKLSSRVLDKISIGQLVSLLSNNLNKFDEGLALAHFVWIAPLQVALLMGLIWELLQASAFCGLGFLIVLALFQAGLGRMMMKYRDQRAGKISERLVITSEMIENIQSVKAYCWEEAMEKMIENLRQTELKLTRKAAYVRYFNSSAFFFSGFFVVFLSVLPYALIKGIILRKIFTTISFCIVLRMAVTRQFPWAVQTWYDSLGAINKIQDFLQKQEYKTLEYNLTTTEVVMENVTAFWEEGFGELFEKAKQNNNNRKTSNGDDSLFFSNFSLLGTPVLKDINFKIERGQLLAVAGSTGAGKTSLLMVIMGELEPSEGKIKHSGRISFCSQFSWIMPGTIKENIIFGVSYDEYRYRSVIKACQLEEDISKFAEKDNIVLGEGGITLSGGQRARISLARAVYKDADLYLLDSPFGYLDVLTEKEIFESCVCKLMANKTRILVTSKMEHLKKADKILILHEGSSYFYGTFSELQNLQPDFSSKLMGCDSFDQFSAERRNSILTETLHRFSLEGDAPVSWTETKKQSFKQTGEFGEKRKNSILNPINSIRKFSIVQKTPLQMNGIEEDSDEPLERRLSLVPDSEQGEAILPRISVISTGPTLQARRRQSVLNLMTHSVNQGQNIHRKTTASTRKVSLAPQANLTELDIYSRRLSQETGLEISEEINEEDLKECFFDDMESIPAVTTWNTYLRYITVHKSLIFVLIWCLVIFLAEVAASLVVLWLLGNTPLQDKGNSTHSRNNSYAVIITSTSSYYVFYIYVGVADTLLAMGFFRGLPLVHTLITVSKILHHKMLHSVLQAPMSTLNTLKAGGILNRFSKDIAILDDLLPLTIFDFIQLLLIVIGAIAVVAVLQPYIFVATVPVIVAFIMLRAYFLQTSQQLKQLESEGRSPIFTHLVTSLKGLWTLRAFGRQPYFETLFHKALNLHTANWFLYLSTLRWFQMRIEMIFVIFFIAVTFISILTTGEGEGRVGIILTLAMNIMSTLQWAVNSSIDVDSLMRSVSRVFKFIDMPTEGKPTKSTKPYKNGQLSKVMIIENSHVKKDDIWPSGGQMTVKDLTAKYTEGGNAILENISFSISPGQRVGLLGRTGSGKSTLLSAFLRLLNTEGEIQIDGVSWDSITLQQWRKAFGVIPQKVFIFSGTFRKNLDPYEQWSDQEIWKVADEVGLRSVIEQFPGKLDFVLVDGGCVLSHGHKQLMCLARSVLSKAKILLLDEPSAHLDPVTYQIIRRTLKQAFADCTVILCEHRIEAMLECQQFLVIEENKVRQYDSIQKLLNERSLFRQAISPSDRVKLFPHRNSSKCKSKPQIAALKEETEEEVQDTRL

Compared with COc1ccc(-c2ccnc3cc(C(=O)Nc4ccc(OC)c(F)c4F)nn23)cc1OC [Compound 326, N-(2,3-difluoro-4-methoxyphenyl)-7-(3,4-dimethoxyphenyl)pyrazolo [1,5-a]pyrimidine-2-carboxamide], COc1ccc(-c2ccnc3cc(C(=O)Nc4ccc(F)cc4)nn23)cc1OC [Compound 267, 7-(3,4-dimethoxyphenyl)-N-(4-fluorophenyl)pyrazolo[1,5-a]pyrimidine-2-carboxamide] is lower in EC50: 200 to 2000 nM for the first, less than 200 nM for the second. The second is the more potent here.

COc1ccc(-c2ccnc3cc(C(=O)Nc4ccc(N(C)C)cn4)nn23)cc1OC [Compound 312, 7-(3,4-dimethoxyphenyl)-N-(5-(dimethylamino)pyridin-2-yl)pyrazolo [1,5-a]pyrimidine-2-carboxamide] and CCOc1ccc(NC(=O)c2cc3nccc(-c4ccc(OC)c(OC)c4)n3n2)nc1 [Compound 314, 7-(3,4-dimethoxyphenyl)-N-(5-ethoxypyridin-2-yl)pyrazolo[1,5-a] pyrimidine-2-carboxamide] cannot be ordered by EC50: less than 200 nM for the first, less than 200 nM for the second.

COc1cccc(C(=O)N2CCN(C(=O)c3cc4nccc(-c5ccc(OC)c(OC)c5)n4n3)C[C@@H]2C)c1 [Compound 318, (S)-(7-(3,4-dimethoxyphenyl)pyrazolo[1,5-a]pyrimidin-2-yl)(4-(3-methoxybenzoyl)-3-methylpiperazin-1-yl) methanone] and COc1ccc(-c2ccnc3cc(C(=O)N4CCN(C)[C@@H](C)C4)nn23)cc1OC [Compound 208, (S)-(7-(3,4-dimethoxyphenyl)pyrazolo [1,5-a]pyrimidin-2-yl)(3,4-dimethylpiperazin-1-yl)methanone] cannot be ordered by EC50: 200 to 2000 nM for the first, no less than 2000 nM for the second.

COc1ccc(-c2ccnc3cc(C(=O)NCC(=O)O)nn23)cc1OC [Compound 22, (7-(3,4-dimethoxyphenyl)pyrazolo[1,5-a]pyrimidine-2-carbonyl) glycine] and COC(=O)c1cc2nccc(-c3ccc(OC)c(OC)c3)n2n1 [Compound 4] cannot be ordered by EC50: no less than 2000 nM for the first, 200 to 2000 nM for the second.

COc1ccc(-c2ccnc3cc(C(=O)Nc4ccc(CN5CCN(C)CC5)cc4)nn23)cc1OC [Compound 243, 7-(3,4-dimethoxyphenyl)-N-(4-((4-methylpiperazin-1-yl)methyl)phenyl)pyrazolo [1,5-a]pyrimidine-2-carboxamide] and COc1ccc(-c2ccnc3cc(C(=O)Nc4ccc(C(=O)N5CCN(C)[C@@H](C)C5)cc4)nn23)cc1OC [Compound 195, (S)-7-(3,4-dimethoxyphenyl)-N-(4-(3,4-dimethylpiperazine-1-carbonyl)phenyl)pyrazolo [1,5-a]pyrimidine-2-carboxamide] fall in the same range of EC50: 200 to 2000 nM for the first, 200 to 2000 nM for the second.

COc1ccc(-c2ccnc3cc(C(=O)N4CCc5ccc(C(=O)N6CCN(C)CC6)cc54)nn23)cc1OC [Compound 252, (7-(3,4-dimethoxyphenyl)pyrazolo[1,5-a]pyrimidin-2-yl)(6-(4-methylpiperazine-1-carbonyl)indolin-1-yl)methanone] and COc1ccc(-c2ccnc3cc(C(=O)N4CCNC5(CC5)C4)nn23)cc1OC [Compound 361, (7-(3,4-dimethoxyphenyl)pyrazolo[1,5-a]pyrimidin-2-yl)(4,7-diazaspiro[2.5]octan-7-yl)methanone] cannot be ordered by EC50: no less than 2000 nM for the first, 200 to 2000 nM for the second.

Going from COC(=O)[C@@H](C)NC(=O)c1ccc(NC(=O)c2cc3nccc(-c4ccc(OC)c(OC)c4)n3n2)cc1 [Compound 64, methyl (4-(7-(3,4-dimethoxyphenyl)pyrazolo[1,5-a]pyrimidine-2-carboxamido)benzoyl)-D-alaninate] to CCOc1ccc(NC(=O)c2cc3nccc(-c4cccc(OC)c4)n3n2)cc1 [Compound 24, N-(4-ethoxyphenyl)-7-(3-methoxyphenyl)pyrazolo [1,5-a]pyrimidine-2-carboxamide], the EC50 rises from less than 200 nM to no less than 2000 nM.

CCCCOC(=O)[C@H]1CC[C@H](NC(=O)c2cc3nccc(-c4ccc(OC)c(OC)c4)n3n2)CC1 [Compound 332, butyl (1r,4r)-4-(7-(3,4-dimethoxyphenyl)pyrazolo [1,5-a]pyrimidine-2-carboxamido)cyclohexane-1-carboxylate] gave an EC50 of 200 to 2000 nM.

— patent US20240199623A1 (ILDONG PHARMACEUTICAL CO., LTD., priority 2020, published 2024)
